The values that follow come from publication PMC12573178, “Substrate-Guided Development of HDAC11-Selective Inhibitors Featuring α‑Amino Amide Zinc-Binding Groups” (ACS Omega, 2025).

The experiment addresses T1, SIRT2 (Homo sapiens, UniProt Q8IXJ6).
T1 sequence (Q8IXJ6 1-389): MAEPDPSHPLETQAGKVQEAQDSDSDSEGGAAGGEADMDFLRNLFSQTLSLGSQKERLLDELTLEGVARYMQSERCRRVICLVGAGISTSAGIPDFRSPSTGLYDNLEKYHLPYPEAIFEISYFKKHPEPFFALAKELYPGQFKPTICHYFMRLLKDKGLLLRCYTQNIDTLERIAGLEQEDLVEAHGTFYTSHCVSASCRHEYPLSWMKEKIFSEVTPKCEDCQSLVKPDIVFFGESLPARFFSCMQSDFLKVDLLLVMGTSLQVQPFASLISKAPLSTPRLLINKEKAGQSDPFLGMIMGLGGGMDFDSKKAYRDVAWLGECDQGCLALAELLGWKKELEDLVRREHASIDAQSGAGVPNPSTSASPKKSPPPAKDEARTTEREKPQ
Briefly: SIRT2 inhibition assays (continuous / discontinuous demyristoylation). Type of experiment: biochemical. The procedure: Inhibition of the enzymatic activity of HDACs was performed continuously for HDAC8, HDAC11, and SIRT2 and discontinuously for SIRT2, 3, and 6 using adequate substrates as described previously. , Experimental details are given in the Supporting Information.
A. HDAC and SIRT deacylase activity assays
Continuous in vitro HDAC inhibition assays
The inhibitors were tested using 384-well plates (GreinerONe). After 5 min of incubation of the inhibitors together with the respective enzymes (HDAC8 = 2 nM, HDAC11 = 20 nM, SIRT2 = 1 nM), the reactions were always started by the addition of substrate for the Zn2+-dependent HDAC and by the addition of NAD+ for SIRT2. […]
The fluorescence increase was followed for 1 h with two reads per min using a PerkinElmer Envision 2104 multilabel plate reader. […] The measured values were normalized accordingly. […] The data were fitted using the GraphPad Prism8 software and kinetic values calculated through non-linear regression analysis. […]
Reactions were stopped after 20 min by adding a constant volume of reaction mixture to stop solution (5 % acetonitrile (ACN) (v/v) and 1 % trifluoroacetic acid (TFA) (v/v) in dd. H 2O). The samples were analysed using HPLC-UV/VIS at λ Abs = 220 nm, λ Ex = 320 nm und λ Em = 420 nm. […]
100 nM, SIRT3: 200 nM, SIRT6: 500 nM). […] The samples were analysed using HPLC-UV/VIS at λ Abs = 360 nm. […]

For `CCCCCCCCCCCCSC[C@@H](N)C(=O)NCCCC[C@@H]1NC(=O)[C@H](CCC(N)=O)NC1=O` [Compound 31], the 50% inhibitory concentration (IC50) was above 20 µM. For the same compound, 50 µM produced 41.5% inhibition (50 μM 31).
